Like-named read-outs stand apart in the source and are kept apart here.
Legend:
[1] = target: nAChR formed by the α7 subunit (3H-α-bungarotoxin binding, cerebral cortex homogenate) (Rattus norvegicus, UniProt Q05941); assay: biochemical
[2] = target: nAChRs comprised of α4 and β2 subunits (3H-cytisine binding, cerebral cortex homogenate) (Rattus norvegicus, UniProt P09483+P12390); assay: In vitro inhibition of 3H-cytisine binding
Experimental: In Vitro Inhibition of 3H-cytisine Binding
The predominant subtype with high affinity for nicotine is comprised of α4 and β2 subunits. nAChRs of the latter type can selectively be labelled by the nicotine agonist ^3H-cytisine.
Tissue Preparation: Preparations are performed at 0-4° C. unless otherwise indicated. […] The homogenate is centrifuged at 27,000×g for 10 min. The supernatant is discarded and the pellet is resuspended in fresh buffer and centrifuged a second time. The final pellet is resuspended in fresh buffer (35 ml per g of original tissue) and used for binding assays.
Assay: Aliquots of 500 μl homogenate are added to 25 μl of test solution and 25 μl of ^3H-cytisine (1 nM, final concentration), mixed and incubated for 90 min at 2° C. Non-specific binding is determined using (−)-nicotine (100 μM, final concentration). After incubation the samples are added 5 ml of ice-cold buffer and poured directly onto Whatman GF/C glass fibre filters under suction and immediately washed with 2×5 ml ice-cold buffer. The amount of radioactivity on the filters is determined by conventional liquid scintillation counting. Specific binding is total binding minus non-specific binding.
Results are given as IC50 values; the concentration (μM) that inhibit binding of the radioactive ligand by 50 %.

[3] = background statement; cited from earlier work
[4] = rat cerebral cortex, 1 nM 3H-cytisine, 90 min at 2° C., read-out: 3H-cytisine IC50

Chain of nAChR formed by the α7 subunit (3H-α-bungarotoxin binding, cerebral cortex homogenate) (Q05941 23-502): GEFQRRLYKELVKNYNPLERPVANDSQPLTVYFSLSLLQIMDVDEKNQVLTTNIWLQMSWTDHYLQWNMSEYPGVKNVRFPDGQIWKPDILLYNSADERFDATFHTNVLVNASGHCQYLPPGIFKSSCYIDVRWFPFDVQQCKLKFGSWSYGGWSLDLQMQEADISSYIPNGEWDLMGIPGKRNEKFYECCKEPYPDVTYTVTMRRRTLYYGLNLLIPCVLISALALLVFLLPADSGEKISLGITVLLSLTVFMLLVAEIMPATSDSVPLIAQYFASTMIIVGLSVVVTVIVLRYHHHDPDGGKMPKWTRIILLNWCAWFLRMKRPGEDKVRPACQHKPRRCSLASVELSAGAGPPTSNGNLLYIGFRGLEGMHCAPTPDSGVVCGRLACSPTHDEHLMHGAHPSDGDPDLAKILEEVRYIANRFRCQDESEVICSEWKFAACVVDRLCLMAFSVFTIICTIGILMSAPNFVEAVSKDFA
Chain of nAChRs comprised of α4 and β2 subunits (3H-cytisine binding, cerebral cortex homogenate) (P09483 31-630): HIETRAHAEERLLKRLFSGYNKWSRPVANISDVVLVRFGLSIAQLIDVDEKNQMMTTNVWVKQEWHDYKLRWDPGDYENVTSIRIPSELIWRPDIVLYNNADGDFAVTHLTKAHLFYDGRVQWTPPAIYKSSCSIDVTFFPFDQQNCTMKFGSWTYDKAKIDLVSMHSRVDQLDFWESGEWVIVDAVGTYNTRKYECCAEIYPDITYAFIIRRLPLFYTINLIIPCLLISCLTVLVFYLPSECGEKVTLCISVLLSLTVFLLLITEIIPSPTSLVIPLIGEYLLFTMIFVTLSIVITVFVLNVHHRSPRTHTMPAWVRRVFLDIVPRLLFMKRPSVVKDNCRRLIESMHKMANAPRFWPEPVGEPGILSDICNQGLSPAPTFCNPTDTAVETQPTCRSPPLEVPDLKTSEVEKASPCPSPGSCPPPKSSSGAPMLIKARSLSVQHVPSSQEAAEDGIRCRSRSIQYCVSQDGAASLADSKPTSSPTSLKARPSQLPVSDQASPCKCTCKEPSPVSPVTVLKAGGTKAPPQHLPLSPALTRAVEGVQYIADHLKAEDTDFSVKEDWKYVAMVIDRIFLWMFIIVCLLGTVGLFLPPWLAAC
Chain of nAChRs comprised of α4 and β2 subunits (3H-cytisine binding, cerebral cortex homogenate) (P12390 25-500): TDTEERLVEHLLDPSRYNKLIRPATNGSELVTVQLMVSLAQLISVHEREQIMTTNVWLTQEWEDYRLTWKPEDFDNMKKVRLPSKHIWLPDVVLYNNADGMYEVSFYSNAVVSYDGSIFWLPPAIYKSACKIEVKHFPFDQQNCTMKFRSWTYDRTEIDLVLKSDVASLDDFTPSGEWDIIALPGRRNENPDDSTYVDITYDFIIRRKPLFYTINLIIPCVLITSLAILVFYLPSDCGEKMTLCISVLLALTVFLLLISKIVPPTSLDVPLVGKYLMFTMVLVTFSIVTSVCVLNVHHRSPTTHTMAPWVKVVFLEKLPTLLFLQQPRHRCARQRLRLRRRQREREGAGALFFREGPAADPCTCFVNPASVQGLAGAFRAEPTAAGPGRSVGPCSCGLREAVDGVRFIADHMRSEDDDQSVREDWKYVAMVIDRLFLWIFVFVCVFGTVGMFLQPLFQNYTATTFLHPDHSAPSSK

Row | Structure (SMILES) | IC50 [1] | melting point | IC50 [2, 4] | analgesic potency relative to morphine [3] | IC50 [2]
1 | Cc1ccc2c(c1)OC1(CN3CCC1CC3)O2 (racemic) [Compound 2a, (±)-6-methyl-spiro[benzo-1,3-dioxolane-2,3′-quinuclidine]] | 180 nM | 173 to 175 °C | 23000 nM | – | –
2 | Clc1ccc(C2CC3CCC2N3)cn1 (stereo not shown) [Epibatidine] | – | – | – | ~500 times that of morphine | –
3 | c1ccc2c(c1)OC1(CN3CCC1CC3)O2 [Compound 1a, Spiro[benzo-1,3-dioxolane-2,3-quinuclidine]] | 190 nM | 123 to 125 °C | – | – | 30000 nM
4 | CC(C)(C)c1ccc2c(c1)OC1(CN3CCC1CC3)O2 (racemic) [Compound 3a, (±)-6-t.-Butyl-spiro[benzo-1,3-dioxolane-2,3′-quinuclidine]] | 2300 nM | 184 to 186 °C | > 10000 nM | – | –

Reference: US6352995B1, “Spiro-quinuclidine derivatives, their preparation and use” (Neurosearch A/S, priority 1997, dated 2002)
